These results are taken from ChEMBL document CHEMBL4004888, “New derivatives of quinoline-4-carboxylic acid with antiplasmodial activity” (Bioorg Med Chem, 2017).

A short description of series [1]: Selectivity index, ratio of IC50 for rat L6 cells to IC50 for erythrocytic stage of chloroquine-sensitive Plasmodium falciparum NF54. As to conditions: read-out: Ratio IC50. The class given is toxicity.
Series [2] deals with Plasmodium falciparum. The series can be described thus: Antiplasmodial activity against erythrocytic stage of chloroquine-sensitive Plasmodium falciparum NF54 assessed as reduction in [3H]hypoxanthine incorporation after 48 hrs by liquid scintillation counting method. The class given is functional.
Series [3] relates to L6. The series can be described thus: Cytotoxicity against rat L6 cells after 70 hrs by alamar blue staining based fluorometric assay. It is filed as cell-based. The following applies: L6, 70 h.
Series [4] can be described thus: Selectivity index, ratio of IC50 for rat L6 cells to IC50 for erythrocytic stage of chloroquine/pyrimethamine-resistant Plasmodium falciparum K1. The class given is toxicity. The following applies: L6 cells versus erythrocytic stage Plasmodium falciparum K1, read-out: Ratio IC50.
In series [5] the test system is Plasmodium berghei. The series can be described thus: Antiplasmodial activity against erythrocytic stage of GFP-fused Plasmodium berghei ANKA infected in NMRI mouse assessed as reduction in parasitaemia at 50 mg/kg, ip for 4 days measured at 24 hrs post last dose by FACS analysis relative to control. Also on record: scale not given: the % may be the effect or the level left. The class given is functional. A general note: A flow cytometer gives signals particle by particle.

The test system of series [6] is Plasmodium berghei. In words: Antiplasmodial activity against erythrocytic stage of GFP-fused Plasmodium berghei ANKA infected in NMRI mouse assessed as mouse survival days at 50 mg/kg, ip for 4 days measured up to 30 days post infection (reference value: 4 day). It is filed as functional.
The subject of series [7] is Plasmodium falciparum. The series can be described thus: Antiplasmodial activity against erythrocytic stage of chloroquine/pyrimethamine-resistant Plasmodium falciparum K1 assessed as reduction in [3H]hypoxanthine incorporation after 48 hrs by liquid scintillation counting method. The class given is functional.
Series [8] deals with Plasmodium berghei. The series can be described thus: Antiplasmodial activity against erythrocytic stage of GFP-fused Plasmodium berghei ANKA infected in NMRI mouse assessed as mouse survival days at 10 mg/kg, ip for 4 days measured up to 30 days post infection (reference value: 4 day). It is filed as functional.

SMILES strings stand for the structures.

Usually IC50 stands for the concentration at which inhibition is half-maximal. `O=C(c1cc(-c2ccc(CN3CCOCC3)cc2)nc2ccc(F)cc12)N1CCN(c2ccccc2)CC1`: the selectivity ratio in series [1] was 5. Moreover, the concentration for half-maximal inhibition (IC50) came to 4920 nM in series [2] and 24.6 µM in series [3] (read-out: IC50).

For `CC(C)(C)OC(=O)N1CCN(CCNC(=O)c2cc(-c3ccc(CN4CCOCC4)cc3)nc3ccc(F)cc23)CC1`, the selectivity ratio in series [1] came out at 64300; in series [4], 15500. In addition, the IC50 in series [2] came out at 0.21 nM; in series [3] (read-out: IC50) it was 13.5 µM; in series [7], 0.87 nM. Besides, the Activity in series [5] is reported as 98.1%. Further, the MSD in series [6] turned out to be 8.3 days.

As for `COc1cc([C@@H]2c3cc4c(cc3[C@H](O)[C@H]3COC(=O)[C@H]23)OCO4)cc(OC)c1OC` [PODOFILOX], in series [3], the IC50 stood at 0.012 µM.

Take `O=C(c1cc(-c2ccc(CN3CCOCC3)cc2)nc2ccc(F)cc12)N1CCN(C(=O)c2cc(-c3ccc(CN4CCOCC4)cc3)nc3ccc(F)cc23)CC1`: the selectivity ratio in series [1] was 19. Also, the IC50 turned out to be 6730 nM in series [2] and 128 µM in series [3] (read-out: IC50).

For the compound `Fc1ccc2nc(-c3ccc(CN4CCOCC4)cc3)cc(CN3CCNCC3)c2c1`, the selectivity ratio in series [1] stood at 6.62. The IC50 came to 2190 nM in series [2] and 14.5 µM in series [3] (read-out: IC50).

On to `N=C(N)N1CCN(C(=O)c2cc(-c3ccc(CN4CCOCC4)cc3)nc3ccc(F)cc23)CC1`, for which, in series [1], the selectivity ratio was 4.26. In addition, the IC50 in series [2] amounted to 49300 nM; in series [3] (read-out: IC50) it was 210 µM.

`O=C(Nc1ccccc1)c1cc(-c2ccc(CN3CCOCC3)cc2)nc2ccc(F)cc12`: in series [1], the selectivity ratio came to 10.1. The figures for the IC50 in series [2] and in series [3] (read-out: IC50) were 1760 nM and 17.7 µM, respectively.

As for `O=C(NCCN1CCNCC1)c1cc(-c2ccc(CN3CCOCC3)cc2)nc2ccc(F)cc12`, the selectivity ratio in series [1] is 103. Further, the values for the IC50 in series [2] and in series [3] (read-out: IC50) were 530 nM and 54.5 µM, respectively.

Consider `C[C@@H]1CC[C@H]2[C@@H](C)C(=O)O[C@@H]3O[C@@]4(C)CC[C@@H]1[C@]32OO4` [ARTEMISININ], for which the selectivity ratio in series [4] was 70300. The IC50 in series [7] amounted to 6.4 nM.

Consider `O=C(NCCN1CCCC1)c1cc(-c2ccc(CN3CCOCC3)cc2)nc2ccc(F)cc12` [CABAMIQUINE], for which the selectivity ratio in series [1] was found to be 219000; in series [4], 129000. Moreover, the IC50 in series [2] amounted to 0.13 nM; in series [3] (read-out: IC50), 28.5 µM; in series [7], 0.22 nM.

As to `O=C(c1cc(-c2ccc(CN3CCOCC3)cc2)nc2ccc(F)cc12)N1CCNCC1`, the selectivity ratio in series [1] is 13.5. The IC50 is 7780 nM in series [2] and 105 µM in series [3] (read-out: IC50).

As to `CCN(CC)C(=O)c1cc(-c2ccc(CN3CCOCC3)cc2)nc2ccc(F)cc12`, the selectivity ratio in series [1] came out at 9.68. For the same compound, the IC50 in series [2] turned out to be 12500 nM; in series [3] (read-out: IC50) it was 121 µM.

For the compound `CN1CCN(Cc2cc(-c3ccc(CN4CCOCC4)cc3)nc3ccc(F)cc23)CC1`, in series [1], the selectivity ratio came to 8.94. The figures for the IC50 in series [2] and in series [3] (read-out: IC50) were 1980 nM and 17.7 µM, respectively.

Consider `CN1CCN(C(=O)c2cc(-c3ccc(CN4CCOCC4)cc3)nc3ccc(F)cc23)CC1`, for which the selectivity ratio in series [1] worked out at 26.6. Besides, the IC50 turned out to be 5080 nM in series [2] and 135 µM in series [3] (read-out: IC50).

Turning to `O=C(Nc1ccc([N+](=O)[O-])cc1)c1cc(-c2ccc(CN3CCOCC3)cc2)nc2ccc(F)cc12`, the selectivity ratio in series [1] amounted to 65.7. In addition, the half-inhibitory concentration (IC50) in series [2] turned out to be 210 nM; in series [3] (read-out: IC50), 13.8 µM.

With `CN1CCN(CCNC(=O)c2cc(-c3ccc(CN4CCOCC4)cc3)nc3ccc(F)cc23)CC1`, in series [1], the selectivity ratio came out at 75.2. Moreover, the IC50 in series [2] is 1090 nM; in series [3] (read-out: IC50) it was 82 µM.

Consider `CC(C)(C)OC(=O)N1CCN(C(=O)c2cc(-c3ccc(CN4CCOCC4)cc3)nc3ccc(F)cc23)CC1`, for which the selectivity ratio in series [1] was found to be 2.14. Also, the values for the IC50 in series [2] and in series [3] (read-out: IC50) were 13800 nM and 29.6 µM, respectively.

Turning to `O=C(NCCN1CCN(c2ccccc2)CC1)c1cc(-c2ccc(CN3CCOCC3)cc2)nc2ccc(F)cc12`, the selectivity ratio in series [1] was 394; in series [4], 563. Besides, the half-inhibitory concentration (IC50) stood at 10 nM in series [2], 3.94 µM in series [3] (read-out: IC50) and 7 nM in series [7]. For the same compound, the Activity in series [5] is given as 17.1%. In addition, the MSD in series [6] worked out at 4 days.

As for `CCN(CC)CCCC(C)Nc1ccnc2cc(Cl)ccc12` (stereo unspecified) [CHLOROQUINE], the MSD in series [8] was 20 days.

As for `Fc1ccc2nc(-c3ccc(CN4CCOCC4)cc3)cc(CN3CCN(c4ccccc4)CC3)c2c1`, in series [1], the selectivity ratio came to 2.4. Besides, the IC50 was 13300 nM in series [2] and 31.9 µM in series [3] (read-out: IC50).

In the case of `CN(C)c1ccc(NC(=O)c2cc(-c3ccc(CN4CCOCC4)cc3)nc3ccc(F)cc23)cc1`, the selectivity ratio in series [1] was 11.4. Also, the figures for the IC50 in series [2] and in series [3] (read-out: IC50) were 1090 nM and 12.4 µM, respectively.

Regarding `COc1ccc(NC(=O)c2cc(-c3ccc(CN4CCOCC4)cc3)nc3ccc(F)cc23)cc1`, in series [1], the selectivity ratio is 11.5. Moreover, the figures for the IC50 in series [2] and in series [3] (read-out: IC50) were 590 nM and 6.77 µM, respectively.
